In patent US8637562B2, “Methods for detecting sulfhydryl-containing compounds in a biological test sample” (Theravance, Inc., priority 2008, dated 2014):

What was measured:
Format in all cases: in vitro ADME
[1] = Hydrolysis of the methyl acrylate derivative in dog plasma (monomer detection method, LC-MS/MS)
Procedure: (§1) Subsequent studies were conducted using dog and monkey plasma. Accordingly, similar calibration standards were prepared in dog and monkey plasma.
(§2) Plasma samples were extracted by protein precipitation. In general, 200 μL of MeCN containing a specified concentration of the internal standard was added into a 50 μL aliquot of each plasma calibration standard, QC, and in vivo plasma sample. The plasma samples were then vortexed and centrifuged. 100 μL of extract was then taken from each plasma sample and reconstituted into 200 μL of 5% MeCN/water containing 0.2% formic acid.
(§3) Multiple reaction monitoring (MRM) is the standard technique for quantitative LC-MS/MS experiments. Four specific MRM transitions for compound I-a, compound III-a, compound IV-a, and the internal standard were simultaneously monitored by LC-MS/MS. 4′-(5-{[(S)-2-(2-Carboxyethylsulfanyl)-4-methylpentanoyl amino]methyl}-2-ethoxy-4-ethylimidazol-1-ylmethyl)-3′-fluorobiphenyl-2-carboxylic acid (compound IV-a):
(§4) [drawing 27] is the hydrolyzed form of compound III-a. […] The relevant derivative concentrations of in vivo samples were determined from the calibration curve. The monomer concentration (in ng/mL units) was calculated from the concentration of the relevant derivative multiplied by the correction factor of the ratio of the molecular weight of the monomer/molecular weight of the derivative.

[2] = Hydrolysis of the methyl acrylate derivative in monkey plasma (monomer detection method, LC-MS/MS)
Procedure: as §1, §2, §3, §4

[3] = Hydrolysis of the methyl acrylate derivative in rat plasma (monomer detection method, LC-MS/MS); conditions: rat plasma containing 1% (v/v) methyl acrylate
Procedure: Rat blood (0.3 mL) was placed into EDTA microtainer tubes containing methyl acrylate (3 μL) (1:100 volume ratio of methyl acrylate:blood). Blood and methyl acrylate were mixed by gentle rolling and tapping of the tube. After 30 minutes of reaction at room temperature, the blood samples were placed on ice until centrifugation. The blood was processed to obtain plasma by centrifugation for 4 minutes at approximately 12,000 rpm. 0.15 mL of plasma was then transferred to cluster tubes on dry ice.
[drawing 26] into a specified volume of blank rat plasma containing 1% (v/v) of methyl acrylate. Compound III-a is the methyl acrylate derivative of compound I-a. In general, the calibration curve range was 0.1 to 1000 ng/mL of compound III-a in rat plasma. […]
Multiple reaction monitoring (MRM) is the standard technique for quantitative LC-MS/MS experiments. Four specific MRM transitions for compound I-a, compound III-a, compound IV-a, and the internal standard were simultaneously monitored by LC-MS/MS. […]
as §4

Compound: CCOc1nc(CC)c(CNC(=O)[C@H](CC(C)C)SCCC(=O)OC)n1Cc1ccc(-c2ccccc2C(=O)O)cc1F [Compound III-a, 4′-(2-ethoxy-4-ethyl-5-{[(S)-2-(2-methoxycarbonylethylsulfanyl)-4-methylpentanoylamino]methyl}imidazol-1-ylmethyl)-3′-fluorobiphenyl-2-carboxylic acid]
- hydrolysis of compound III-a to compound IV-a in plasma [1]: not
- hydrolysis of compound III-a to compound IV-a in plasma [2]: not
- hydrolysis of compound III-a to compound IV-a in plasma [3]: completely hydrolyzes to compound IV-a
